# Experimental data as given in US20170050957A1, “4-AMINO-6-(HETEROCYCLIC)PICOLINATES AND 6-AMINO-2-(HETEROCYCLIC)PYRIMIDINE-4-CARBOXYLATES AND THEIR USE AS HERBICIDES” (Dow AgroSciences LLC, priority 2013, published 2017).
# Where two headings read alike, the source gives them in different places.
# What was measured:
# [1] = system: Key Grass and Sedge Weeds as well as Grass Crops; assay: Post-emergent Test II herbicidal activity (Table 16); assay type: in vivo; conditions: post-emergence, 336 h, 14 days after application; for pest or weed control at 35 g/ha: 35 g ai/ha; for pest or weed control at 70 g/ha: 70 g ai/ha; for pest or weed control at 140 g/ha: 140 g ai/ha
# Procedure, shortened: (§1)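 Post-emergence spray; seedlings 7-21 d old, 1st-2nd true leaf; 187 L/ha; serial rates 1×-1/16×; solvent blank controls; subirrigated; visual % injury at 14 d.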
# [2] = system: Key Broadleaf Weed and Crop Species; assay: Post-emergent Test II herbicidal activity (Table 15); assay type: in vivo; conditions: post-emergence, 336 h, 14 d; for pest or weed control at 35 g/ha: 35 g ai/ha; for pest or weed control at 70 g/ha: 70 g ai/ha; for pest or weed control at 140 g/ha: 140 g ai/ha
# Procedure, shortened: as §1
# [3] = Cyperus esculentus, yellow nutsedge (Cyperus esculentus), read-out: Visual Growth Reduction (%) 14 Days After Application CYPES
# [4] = Echinochloa crus-galli, barnyardgrass (Echinochloa crus-galli), read-out: Visual Growth Reduction (%) 14 Days After Application ECHCG
# [5] = Oryza sativa, rice (Oryza sativa), read-out: Visual Growth Reduction (%) 14 Days After Application ORYSA
# [6] = Setaria faberi, giant foxtail (Setaria faberi), read-out: Visual Growth Reduction (%) 14 Days After Application SETFA
# [7] = Triticum aestivum, wheat, spring (Triticum aestivum), read-out: Visual Growth Reduction (%) 14 Days After Application TRZAS
# [8] = Zea mays, maize, corn (Zea mays), read-out: Visual Growth Reduction (%) 14 Days After Application ZEAMX
# [9] = Abutilon theophrasti, velvetleaf (Abutilon theophrasti), read-out: Visual Growth Reduction (%) 14 Days After Application, ABUTH
# [10] = Amaranthus retroflexus, redroot pigweed (Amaranthus retroflexus), read-out: Visual Growth Reduction (%) 14 Days After Application, AMARE
# [11] = Brassica napus, oilseed rape, canola (Brassica napus), read-out: Visual Growth Reduction (%) 14 Days After Application, BRSNN
# [12] = Chenopodium album, lambsquarters (Chenopodium album), read-out: Visual Growth Reduction (%) 14 Days After Application, CHEAL
# [13] = Euphorbia heterophylla, wild poinsettia (Euphorbia heterophylla), read-out: Visual Growth Reduction (%) 14 Days After Application, EPHHL
# [14] = Helianthus annuus, sunflower (Helianthus annuus), read-out: Visual Growth Reduction (%) 14 Days After Application, HELAN
SMILES,melting point [°C],"pest or weed control at 35 g/ha [1, 3] [%]","pest or weed control at 70 g/ha [1, 3] [%]","pest or weed control at 140 g/ha [1, 3] [%]","pest or weed control at 35 g/ha [1, 4] [%]","pest or weed control at 70 g/ha [1, 4] [%]","pest or weed control at 140 g/ha [1, 4] [%]","pest or weed control at 35 g/ha [1, 5] [%]","pest or weed control at 70 g/ha [1, 5] [%]","pest or weed control at 140 g/ha [1, 5] [%]","pest or weed control at 35 g/ha [1, 6] [%]","pest or weed control at 70 g/ha [1, 6] [%]","pest or weed control at 140 g/ha [1, 6] [%]","pest or weed control at 35 g/ha [1, 7] [%]","pest or weed control at 70 g/ha [1, 7] [%]","pest or weed control at 140 g/ha [1, 7] [%]","pest or weed control at 35 g/ha [1, 8] [%]","pest or weed control at 70 g/ha [1, 8] [%]","pest or weed control at 140 g/ha [1, 8] [%]","pest or weed control at 35 g/ha [2, 9] [%]",other results
COC(=O)c1nc(-c2cc3sccc3cc2F)c(F)c(N)c1Cl [Compound 3.14],112,0 to 29,0 to 29,0 to 29,0 to 29,0 to 29,0 to 29,0 to 29,0 to 29,0 to 29,0 to 29,0 to 29,0 to 29,0 to 29,0 to 29,0 to 29,0 to 29,30 to 44,60 to 74,0 to 29,"pest or weed control at 70 g/ha [2, 9]: 0 to 29%; pest or weed control at 140 g/ha [2, 9]: 0 to 29%; pest or weed control at 35 g/ha [2, 10]: 85 to 94%; pest or weed control at 70 g/ha [2, 10]: 95 to 100%; pest or weed control at 140 g/ha [2, 10]: 95 to 100%; pest or weed control at 35 g/ha [2, 11]: 0 to 29%; pest or weed control at 70 g/ha [2, 11]: 0 to 29%; pest or weed control at 140 g/ha [2, 11]: 0 to 29%; pest or weed control at 35 g/ha [2, 12]: 85 to 94%; pest or weed control at 70 g/ha [2, 12]: 85 to 94%; pest or weed control at 140 g/ha [2, 12]: 95 to 100%; pest or weed control at 35 g/ha [2, 13]: 30 to 44%; pest or weed control at 70 g/ha [2, 13]: 30 to 44%; pest or weed control at 140 g/ha [2, 13]: 60 to 74%; pest or weed control at 35 g/ha [2, 14]: 85 to 94%; pest or weed control at 70 g/ha [2, 14]: 85 to 94%; pest or weed control at 140 g/ha [2, 14]: 95 to 100%"
Nc1cc(-c2ccc3ccsc3c2)nc(C(=O)O)c1Cl [Compound 3.16],176 to 177,0 to 29,0 to 29,45 to 59,75 to 84,75 to 84,75 to 84,0 to 29,0 to 29,0 to 29,0 to 29,0 to 29,0 to 29,0 to 29,0 to 29,0 to 29,60 to 74,60 to 74,75 to 84,60 to 74,"pest or weed control at 70 g/ha [2, 9]: 60 to 74%; pest or weed control at 140 g/ha [2, 9]: 75 to 84%; pest or weed control at 35 g/ha [2, 10]: 85 to 94%; pest or weed control at 70 g/ha [2, 10]: 95 to 100%; pest or weed control at 140 g/ha [2, 10]: 85 to 94%; pest or weed control at 35 g/ha [2, 11]: 0 to 29%; pest or weed control at 70 g/ha [2, 11]: 0 to 29%; pest or weed control at 140 g/ha [2, 11]: 45 to 59%; pest or weed control at 35 g/ha [2, 12]: 85 to 94%; pest or weed control at 70 g/ha [2, 12]: 85 to 94%; pest or weed control at 140 g/ha [2, 12]: 85 to 94%; pest or weed control at 35 g/ha [2, 13]: 60 to 74%; pest or weed control at 70 g/ha [2, 13]: 60 to 74%; pest or weed control at 140 g/ha [2, 13]: 60 to 74%; pest or weed control at 35 g/ha [2, 14]: 0 to 29%; pest or weed control at 70 g/ha [2, 14]: 0 to 29%; pest or weed control at 140 g/ha [2, 14]: 0 to 29%"
